Results taken from patent US6936469B2, “Methods for delivering nucleic acid molecules into cells and assessment thereof” (Chromos Molecular Systems Inc., priority 2001, dated 2005).

How the values were obtained:
[1] = test system: V79-4 (Chinese Hamster Lung fibroblast) cells; test: Flow cytometry measurement of delivery of IdU labeled ACes with transfection agents; assay type: cell-based; settings: percentage of transfected cells containing IdU labeled ACes, 1×10^6 ACes complexed with agent, agent dose in microliters per Table 2
Procedure: All compounds were tested in a Chinese Hamster lung fibroblast line (V79-4, ATCC number CCL-39). Approximately 17 hours (2 cell doublings) prior to transfection, exponentially growing cells were trypsinized and plated at 250,000 cells per well into a 6 well petri dish with Dulbecco's Modified Eagle Medium (Life Technologies, Burlington, ON) and supplemented with 10% FBS (Can Sera, Rexdale ON)). At the time of transfection, the number of cells per well was estimated to be approximately 1 million. For transfection, each individual manufacturer's protocol for complexing to naked DNA was followed, with the exception that the amount of transfection agent used was varied, to reflect the different amount and type of DNA present, as well as the different ionic strength of the complexing. […]
The percentage of transfected cells containing IdUrd-labeled ACes was determined using flow cytometry and collecting FITC fluorescence. Data were accumulated to form bivariate channel distribution showing forward scatter versus green fluorescence (IdUrd-FITC). The fluorescence level at which cells were determined to be positive was established by visual inspection of the histogram of negative control cells such that the gate for the negative cells was set such that 1% appeared in the positive region. […]

CHO-KI cells = test: Ultrasound mediated transfection of CHO-KI cells with GFP chromosomes; assay type: cell-based
Procedure: Vesicles were prepared at a lipid concentration of 700 nmol/ml lipid (cationic lipid/DOPE 1:1) as follows. In a glass tube (10 ml) 350 nmol cationic lipid (SAINT-2) was mixed with 350 nmol dioleoylphosphatidylethanolamine (DOPE), both solubilized in an organic solvent (Chloroform, Methanol or Chloroform/Methanol 1:1, v/v). Dioleoylphosphatidylethanolamine (DOPE; Avanti Polar Lipids, Alabaster, Ala.) forms inverse hexagonal phases in a membrane and weakens the membrane. Other effectors that may be used are cis-unsaturated phosphatidylethanolamines, cis-unsaturated fatty acids, and cholesterol.
The solvent was evaporated under a stream of nitrogen (15 min/ 250 μl solvent at room temperature). The remaining solvent was removed totally by drying the lipid for 15 min in a desiccator under high vacuum from a vacuum pump. To the dried mixture was added 1 ml ultrapure water. This was vortexed vigorously for about […]. The resulting solution was sonicated in an ultrasonication bath (Laboratory Supplies Inc. NY) until a clear solution was obtained. The resulting suspension contained a population of unilamellar vesicles with a size distribution between 50 to 100 nm.
CHO-KI cells were grown at 37°, 5% CO2, in CHO-S-SFM 2 Medium, (Gibco BRL, Paisley, UK). Between 2×10^5 and 5×10^5 cells were plated onto sterile glass slides in a 12 well plate 24 h before usage.
(§1) Transfection of the cells was performed as follows. The medium was removed from the cells, and the cells were washed twice with HBSS (Hanks balanced salt solution without Phenol Red (Gibco BRL, UK)) at 37° C. Then 500 μl HBSS at 37° C. was added per well, followed by 10 μl of the freshly prepared vesicle solution (prepared in Example 2) to yield a final concentration of 23.3 nmol/ml.
(§2) Alternatively, the medium was removed from the cells, and the cells were washed twice with HBSS. 500 μl HBSS/lipid solution at 37° C. was added to each well. The HBSS/lipid solution was prepared by adding 1 μl ethanolic lipid solution (prepared as described above) to 500 μl HBSS under vigorous vortexing. The plates were then sealed with parafilm tape and shaken gently at room temperature for 30 min. After incubation, ultrasound was applied at an output energy of 0.5 Watt/cm^2 for 60 sec through the bottom of the plate to the cells. The ultrasound was mediated by an ultrasound gel (Aquasonic 100, Parker, N.J.) between transducer and plate. The ultrasound was applied with an ImaRx Sonoporator 100. Immediately after applying ultrasound one GFP chromosome per seeded cell (2×10^5-5×10^5) (prepared in Example 1) was added. The plate was then sealed again and shaken gently for 1 h at room temperature. […]

Hep-G2 cells = test: Ultrasound mediated transfection of Hep-G2 cells with GFP chromosomes; assay type: cell-based
Procedure: as §1, §2

A9 cells = test: Ultrasound mediated transfection of A9 cells with GFP chromosomes; assay type: cell-based, murine
Procedure: as §1, §2

[2] = Saint-2/DOPE 1:1, ultrasound 0.5 Watt/cm^2 for 60 sec

cells remained on the glass slide after transfection (CHO-KI cells; Saint-2/DOPE 1:1, ultrasound 0.5 Watt/cm^2 for 60 sec, visual inspection) [%]	cells remained on the glass slide after transfection (Hep-G2 cells; [2]) [%]	cells remained on the glass after transfection (A9 cells; [2]) [%]	Structure (SMILES)	DELIVERY % IdU positive (24 hours) [1] [%]	GFP positive cells, of original population (CHO-KI cells; after 48 hours) [%]	remaining cells positive for green fluorescent protein expression (CHO-KI cells; after 48 hours, of the cells remaining on the slide) [%]	cells containing an intact artificial chromosome (FISH) (CHO-KI cells; after culturing for two weeks) [%]	remaining cells positive for green fluorescent protein expression (Hep-G2 cells; of the cells remaining on the slide) [%]	remaining cells positive for green fluorescent protein expression (A9 cells; of the cells remaining on the glass) [%]
–	–	–	CCCCCCCCCCCCCCN=C(CCNCCCCCCCCCCCCCC)NC(C)(C)C [CLONFECTIN, N-t-butyl-N′-tetradecyl-3-tetradecyl-aminopropionamidine]	0.61	–	–	–	–	–
30	30	30	CCCCCCCCC=CCCCCCCCCC(CCCCCCCCC=CCCCCCCCC)c1cc[n+](C)cc1.[Cl-] (stereo not drawn) [Saint-2, 1-methyl-4-(1-octadec-9-enyl-nonadec-10-enylenyl) pyridinium chloride]	–	3	10	1.4	80	50
